Assay results taken from ChEMBL document CHEMBL4270559, “Structural insight into the optimization of ethyl 5-hydroxybenzo[g]indol-3-carboxylates and their bioisosteric analogues as 5-LO/m-PGES-1 dual inhibitors able to suppress inflammation” (Eur J Med Chem, 2018).
pIC50: −log10 of the molar value.

What was measured:
[1] = target: T1, Polyunsaturated fatty acid 5-lipoxygenase (Homo sapiens, UniProt P09917); experiment: Inhibition of 5-LO in human peripheral blood neutrophils using arachidonic acid as substrate preincubated for 15 mins followed by substrate addition measured after 10 mins by RP-HPLC analysis
T1 sequence (P09917 whole entry): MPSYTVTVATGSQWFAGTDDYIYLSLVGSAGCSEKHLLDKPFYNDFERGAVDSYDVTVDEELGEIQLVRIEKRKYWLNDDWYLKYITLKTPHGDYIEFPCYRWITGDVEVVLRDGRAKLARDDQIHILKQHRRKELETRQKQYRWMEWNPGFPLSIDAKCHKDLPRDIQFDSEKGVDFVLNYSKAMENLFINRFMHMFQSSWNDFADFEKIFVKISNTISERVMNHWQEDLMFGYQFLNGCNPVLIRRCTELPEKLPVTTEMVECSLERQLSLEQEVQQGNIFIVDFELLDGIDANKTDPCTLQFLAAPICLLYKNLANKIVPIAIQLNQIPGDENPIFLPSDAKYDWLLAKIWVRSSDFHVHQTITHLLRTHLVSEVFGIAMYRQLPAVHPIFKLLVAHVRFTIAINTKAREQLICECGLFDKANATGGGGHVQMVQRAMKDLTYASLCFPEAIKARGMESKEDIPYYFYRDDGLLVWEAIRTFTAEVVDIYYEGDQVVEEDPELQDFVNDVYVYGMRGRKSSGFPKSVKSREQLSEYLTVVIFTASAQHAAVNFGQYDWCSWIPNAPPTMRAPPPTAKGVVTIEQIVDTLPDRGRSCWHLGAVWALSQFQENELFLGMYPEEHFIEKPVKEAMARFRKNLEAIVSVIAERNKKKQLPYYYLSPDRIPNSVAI

[2] = target: T1, Polyunsaturated fatty acid 5-lipoxygenase; experiment: Inhibition of recombinant human 5-LO expressed in Escherichia coli BL21 using arachidonic acid as substrate preincubated for 15 mins followed by substrate addition measured after 10 mins by RP-HPLC analysis
Mus musculus [3] = experiment: Anti-inflammatory activity in carrageenan-induced ICR mouse model of inflammation assessed as reduction in paw edema at 4 mg/kg, ip administered 30 mins prior to carrageenan challenge measured at 4 hrs post carrageenan challenge by plethysmometric method relative to control; format: functional; design: scale not given: the % may be the effect or the level left
Prostaglandin E synthase = target: T2, Prostaglandin E synthase (Homo sapiens, UniProt O14684); experiment: Inhibition of mPGES-1 in microsomal membranes isolated from IL-1beta-stimulated human A549 cells preincubated for 15 mins followed by PGH2 addition measured after 1 mins by RP-HPLC analysis; format: cell membranes
T2 sequence (O14684 whole entry): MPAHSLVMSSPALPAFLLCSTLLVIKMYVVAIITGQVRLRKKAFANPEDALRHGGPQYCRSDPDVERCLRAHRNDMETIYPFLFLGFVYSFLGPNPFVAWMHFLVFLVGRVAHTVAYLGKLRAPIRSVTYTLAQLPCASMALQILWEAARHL

[4] = target: T3, Prostaglandin E synthase (Homo sapiens) (UniProt O14684); experiment: Inhibition of mPGES-1 in microsomal membranes isolated from IL-1beta-stimulated human A549 cells assessed as residual activity preincubated for 15 mins followed by PGH2 addition measured after 1 mins by RP-HPLC analysis relative to control; format: cell membranes
T3 sequence (whole entry): T2 sequence (O14684 whole entry)

Mus musculus [5] = experiment: Anti-inflammatory activity in carrageenan-induced ICR mouse model of inflammation assessed as reduction in paw edema at 20 mg/kg, ip administered 30 mins prior to carrageenan challenge measured at 2 to 6 hrs post carrageenan challenge by plethysmometric method relative to control; format: functional; design: scale not given: the % may be the effect or the level left
Mus musculus [6] = experiment: Anti-inflammatory activity in carrageenan-induced ICR mouse model of inflammation assessed as reduction in paw edema at 4 mg/kg, ip administered 30 mins prior to carrageenan challenge measured at 2 to 6 hrs post carrageenan challenge by plethysmometric method relative to control; format: functional; design: scale not given: the % may be the effect or the level left

Structure (SMILES) | pIC50 [1] | pIC50 [2] | Activity (Mus musculus [3]) [%] | pIC50 (Prostaglandin E synthase) | Activity [4] [%] | Activity (Mus musculus [5]) [%] | Activity (Mus musculus [6]) [%]
CCOC(=O)c1c(-c2ccc(Cl)cc2)oc2c1cc(O)c1ccccc12 | 5.43 | 6.89 | – | – | – | – | –
CCOC(=O)c1c(-c2cc(Br)ccc2F)[nH]c2c1cc(O)c1ccccc12 | 6.64 | 6.96 | 73.95 | 5.67 | – | – | –
CCOC(=O)c1c(-c2ccccc2F)[nH]c2c1cc(O)c1ccccc12 | 6.82 | 7.00 | – | – | 50.6 | – | –
CC(c1cc2ccccc2s1)N(O)C(N)=O (centres undefined) [ZILEUTON] | – | – | – | – | – | 38.2 | –
CCOC(=O)c1c(Cc2c(C)cc(C)cc2C)[nH]c2c1cc(O)c1ccccc12 | 6.89 | 6.53 | – | 4.23 | – | – | –
CCOC(=O)c1c(-c2ccc(Cl)c(Cl)c2)[nH]c2c1cc(O)c1ccccc12 | 6.89 | 6.89 | 47.3 | 6.32 | – | – | –
CCOC(=O)c1c(-c2ccccc2F)oc2c1cc(O)c1ccccc12 | 6.17 | 6.43 | – | – | – | – | –
CCOC(=O)c1c(Cc2c(Cl)cccc2Cl)[nH]c2c1cc(O)c1ccccc12 | 5.94 | 6.11 | – | – | 78.1 | – | –
CCOC(=O)c1c(-c2ccccc2C)[nH]c2c1cc(O)c1ccccc12 | 6.38 | 6.96 | – | 4.90 | – | – | –
CCOC(=O)c1c(-c2ccccc2Br)oc2c1cc(O)c1ccccc12 | 6.10 | 6.80 | – | – | – | – | –
CCOC(=O)c1c(-c2ccc(Cl)cc2)[nH]c2c1cc(O)c1ccccc12 | – | – | – | 5.47 | – | – | –
CCOC(=O)c1c(-c2ccccc2Cl)oc2c1cc(O)c1ccccc12 | 5.73 | 6.43 | – | – | – | – | –
CCOC(=O)c1c(C)[nH]c2c1cc(O)c1ccccc12 | 6.38 | 6.32 | – | – | – | – | –
CCOC(=O)c1c(Cc2ccccc2Cl)[nH]c2c1cc(O)c1ccccc12 | – | – | – | 6.02 | – | – | –
CCOC(=O)c1c(-c2ccccc2Cl)[nH]c2c1cc(O)c1ccccc12 | 6.62 | 6.89 | – | – | – | – | –
CCOC(=O)c1c(-c2ccc(Br)cc2F)[nH]c2c1cc(O)c1ccccc12 | 6.07 | 6.57 | 69.35 | 5.46 | – | – | –
CCOC(=O)c1c(-c2cccc(Br)c2)oc2c1cc(O)c1ccccc12 | 5.79 | 6.07 | – | – | – | – | –
CCOC(=O)c1c(Cc2ccc(Cl)c(Cl)c2)[nH]c2c1cc(O)c1ccccc12 | 7.35 | 7.27 | – | 5.38 | – | – | 73
CCOC(=O)c1c(-c2ccccc2Br)[nH]c2c1cc(O)c1ccccc12 | 6.70 | 6.80 | – | 5.60 | – | – | –
CCOC(=O)c1c(-c2ccc(Br)cc2F)oc2c1cc(O)c1ccccc12 | 5.63 | 5.97 | – | – | – | – | –
CCOC(=O)c1c(-c2cccc(Cl)c2)oc2c1cc(O)c1ccccc12 | 5.41 | 6.34 | – | – | – | – | –
CCOC(=O)c1c(-c2ccc(Cl)c(Cl)c2)oc2c1cc(O)c1ccccc12 | 5.91 | 5.77 | – | – | – | – | –
CCOC(=O)c1c(-c2ccccc2OC)[nH]c2c1cc(O)c1ccccc12 | 6.68 | 6.72 | – | 5.07 | – | – | –
CCOC(=O)c1c(-c2cccc(Br)c2)[nH]c2c1cc(O)c1ccccc12 | 6.68 | 6.89 | – | 5.92 | – | – | –
CCOC(=O)c1c(Cc2c(F)cccc2F)[nH]c2c1cc(O)c1ccccc12 | 7.03 | 6.77 | – | 5.38 | – | – | 81
CCOC(=O)c1c(-c2cccc(C)c2)[nH]c2c1cc(O)c1ccccc12 | 6.92 | 6.85 | – | 5.59 | – | – | –
CCOC(=O)c1c(-c2cc(Br)ccc2F)oc2c1cc(O)c1ccccc12 | 5.35 | 5.69 | – | – | – | – | –
CCOC(=O)c1c(-c2ccccc2OC)oc2c1cc(O)c1ccccc12 | 5.87 | 6.66 | – | – | – | – | –
CCOC(=O)c1c(-c2cc(C)cc(C)c2)[nH]c2c1cc(O)c1ccccc12 | 6.52 | 6.92 | – | 5.15 | – | – | –
